# Measurements from ChEMBL document CHEMBL2016561 (J Med Chem, 2012).
# *1 amine or outer side, *2 acyl side, *3 side chain or, on linkers, in order; H or OH if unused. Where a SMILES comes first, the peptide text is derived from it. [ ]: non-standard residue; d: D form. The star is where a group is joined. X1 = O=C1[C@@H](CCC(=O)[*:2])CCC[C@H]1N[*:1]; Met(O2) = CS(=O)(=O)CC[C@H](N)C(=O)O; Cbz = O=C(OCc1ccccc1)*
# How the values were obtained:
# [1] = molecular target: Vitamin K-dependent protein C (Homo sapiens, UniProt P04070); assay: Inhibition of activated protein C by dixon plot method
# Sequence of Vitamin K-dependent protein C (P04070 43-197 limits assumed): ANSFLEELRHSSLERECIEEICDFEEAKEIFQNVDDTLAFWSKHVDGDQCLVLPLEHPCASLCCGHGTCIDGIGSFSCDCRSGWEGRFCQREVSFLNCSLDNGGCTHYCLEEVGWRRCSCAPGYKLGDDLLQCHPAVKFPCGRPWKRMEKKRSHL
# Sequence of Vitamin K-dependent protein C (P04070 212-461 limits assumed): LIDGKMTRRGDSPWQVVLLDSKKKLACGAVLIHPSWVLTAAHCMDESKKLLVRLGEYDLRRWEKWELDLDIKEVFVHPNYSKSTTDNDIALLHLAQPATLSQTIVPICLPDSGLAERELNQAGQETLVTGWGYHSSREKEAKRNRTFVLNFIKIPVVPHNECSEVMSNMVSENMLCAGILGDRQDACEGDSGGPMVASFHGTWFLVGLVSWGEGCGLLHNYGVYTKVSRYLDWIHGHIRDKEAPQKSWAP
# Prothrombin = Prothrombin (Homo sapiens, UniProt P00734); assay: Inhibition of thrombin by dixon plot method
# Plasma kallikrein = Plasma kallikrein (Homo sapiens, UniProt P03952); assay: Inhibition of plasma kallikrein by dixon plot method
# Sequence of Plasma kallikrein (P03952 20-390 limits assumed): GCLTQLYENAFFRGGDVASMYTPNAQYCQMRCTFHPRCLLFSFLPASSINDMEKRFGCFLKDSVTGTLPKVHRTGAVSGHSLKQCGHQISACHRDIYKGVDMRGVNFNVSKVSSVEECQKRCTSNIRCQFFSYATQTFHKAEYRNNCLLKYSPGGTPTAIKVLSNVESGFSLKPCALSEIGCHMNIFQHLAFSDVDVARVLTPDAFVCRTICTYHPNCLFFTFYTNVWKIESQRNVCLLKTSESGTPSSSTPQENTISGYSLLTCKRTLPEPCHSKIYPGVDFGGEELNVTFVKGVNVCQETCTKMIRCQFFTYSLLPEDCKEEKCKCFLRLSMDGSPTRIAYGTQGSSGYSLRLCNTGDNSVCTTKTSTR
# Sequence of Plasma kallikrein (P03952 391-638 limits assumed): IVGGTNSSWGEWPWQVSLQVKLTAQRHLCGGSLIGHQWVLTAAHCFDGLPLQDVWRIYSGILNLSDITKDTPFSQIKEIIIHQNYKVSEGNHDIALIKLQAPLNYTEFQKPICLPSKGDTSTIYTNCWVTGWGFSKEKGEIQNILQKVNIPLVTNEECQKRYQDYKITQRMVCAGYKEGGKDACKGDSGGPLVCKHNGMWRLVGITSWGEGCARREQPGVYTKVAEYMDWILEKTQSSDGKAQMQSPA
# Plasminogen = Plasminogen (Homo sapiens, UniProt P00747); assay: Inhibition of plasmin by dixon plot method
# Sequence of Plasminogen (P00747 97-580 limits assumed): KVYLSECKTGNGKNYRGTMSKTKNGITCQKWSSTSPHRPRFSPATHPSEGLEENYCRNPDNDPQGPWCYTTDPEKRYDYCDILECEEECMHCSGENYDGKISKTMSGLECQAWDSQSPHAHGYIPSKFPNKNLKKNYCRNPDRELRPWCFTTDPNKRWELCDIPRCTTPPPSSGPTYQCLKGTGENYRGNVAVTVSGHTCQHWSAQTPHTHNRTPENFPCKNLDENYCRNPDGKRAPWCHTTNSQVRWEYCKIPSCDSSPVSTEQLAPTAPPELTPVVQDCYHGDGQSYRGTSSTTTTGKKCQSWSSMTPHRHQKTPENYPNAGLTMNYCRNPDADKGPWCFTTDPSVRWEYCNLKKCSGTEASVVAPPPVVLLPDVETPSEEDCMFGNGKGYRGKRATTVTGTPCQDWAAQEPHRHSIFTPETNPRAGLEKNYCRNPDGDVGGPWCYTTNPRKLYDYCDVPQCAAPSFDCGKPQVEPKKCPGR
# Sequence of Plasminogen (P00747 581-810 limits assumed): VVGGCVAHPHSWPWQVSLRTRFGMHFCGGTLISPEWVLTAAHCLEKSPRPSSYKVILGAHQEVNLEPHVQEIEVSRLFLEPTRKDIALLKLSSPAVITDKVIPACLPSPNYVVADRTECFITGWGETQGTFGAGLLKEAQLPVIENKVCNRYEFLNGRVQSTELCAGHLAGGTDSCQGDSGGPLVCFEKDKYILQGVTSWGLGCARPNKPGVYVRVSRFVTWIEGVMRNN
# Coagulation factor X = Coagulation factor X (Homo sapiens, UniProt P00742); assay: Inhibition of factor 10a by dixon plot method
# Sequence of Coagulation factor X (P00742 41-179 limits assumed): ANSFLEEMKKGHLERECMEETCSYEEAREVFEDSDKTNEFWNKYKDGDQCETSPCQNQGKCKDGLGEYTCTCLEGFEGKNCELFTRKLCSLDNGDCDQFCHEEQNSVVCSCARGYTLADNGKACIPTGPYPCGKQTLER
# Sequence of Coagulation factor X (P00742 235-488 limits assumed): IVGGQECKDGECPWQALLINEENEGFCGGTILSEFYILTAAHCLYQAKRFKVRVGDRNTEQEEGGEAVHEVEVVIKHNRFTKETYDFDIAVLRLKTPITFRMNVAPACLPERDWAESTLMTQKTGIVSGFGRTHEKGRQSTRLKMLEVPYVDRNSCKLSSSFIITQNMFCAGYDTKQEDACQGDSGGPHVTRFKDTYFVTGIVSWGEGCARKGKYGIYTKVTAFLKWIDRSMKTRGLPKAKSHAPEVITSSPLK
Ki [1] [nM],Ki (Prothrombin) [nM],Ki (Plasma kallikrein) [nM],Ki (Plasminogen) [nM],Ki (Coagulation factor X) [nM],Compound
12000,6520,–,–,–,N=C(N)c1ccc(CNC(=O)[C@@H]2Cc3ccc(cc3)CNC(=O)Cc3ccc(cc3)CC(=O)NCc3ccc(cc3)C[C@@H](NS(=O)(=O)Cc3ccccc3)C(=O)N2)cc1
5.1,2020,–,–,–,N=C(N)c1ccc(CNC(=O)[C@@H]2CCC(=O)NCc3cccc(c3)CNC(=O)CC[C@@H](NS(=O)(=O)Cc3ccccc3)C(=O)N2)cc1
3510,3520,–,–,–,N=C(N)c1ccc(CNC(=O)[C@@H]2Cc3ccc(cc3)CNC(=O)CN3CCN(CC3)CC(=O)NCc3ccc(cc3)C[C@@H](NS(=O)(=O)Cc3ccccc3)C(=O)N2)cc1
48,7.2,25.3,–,21,N=C(N)c1ccc(CNC(=O)[C@@H]2Cc3cccc(c3)CNC(=O)CN3CCN(CC3)CC(=O)NCc3cccc(c3)C[C@@H](NS(=O)(=O)Cc3ccccc3)C(=O)N2)cc1
223,26.8,–,–,–,N=C(N)c1ccc(CNC(=O)[C@@H]2Cc3cccc(c3)CNC(=O)Cc3cccc(c3)CC(=O)NCc3cccc(c3)C[C@@H](NS(=O)(=O)Cc3ccccc3)C(=O)N2)cc1
90,137,–,–,–,N=C(N)c1ccc(CNC(=O)[C@@H]2Cc3ccc(cc3)OCC=CCOc3ccc(cc3)C[C@@H](NS(=O)(=O)Cc3ccccc3)C(=O)N2)cc1 (mixture of isomers)

# Further lines, the molecule ahead of its results:
Compound,Ki [1] [nM],Ki (Prothrombin) [nM],Ki (Plasma kallikrein) [nM],Ki (Plasminogen) [nM],Ki (Coagulation factor X) [nM]
N=C(N)NCc1cccc(C[C@H](NC(=O)[C@@H](CCCc2ccccc2)NS(=O)(=O)Cc2cccc(C(=O)O)c2)C(=O)NCc2ccc(C(=N)N)cc2)c1,0.61,667,0.075,0.81,42
N=C(N)c1ccc(CNC(=O)[C@@H]2Cc3cccc(c3)CNC(=O)Cc3ccc(cc3)CC(=O)NCc3cccc(c3)C[C@@H](NS(=O)(=O)Cc3ccccc3)C(=O)N2)cc1,564,45.4,–,–,–
N=C(N)c1ccc(CNC(=O)[C@@H]2Cc3ccc(cc3)OCCCCOc3ccc(cc3)C[C@@H](NS(=O)(=O)Cc3ccccc3)C(=O)N2)cc1,4590,510,19,1.1,784
N=C(N)c1ccc(CNC(=O)[C@@H]2Cc3cn(nn3)Cc3cccc(c3)Cn3cc(nn3)C[C@@H](NS(=O)(=O)Cc3ccccc3)C(=O)N2)cc1,3000,9490,–,–,–
N=C(N)c1ccc(CNC(=O)[C@@H]2Cc3cn(nn3)Cc3cccc(n3)Cn3cc(nn3)C[C@@H](NS(=O)(=O)Cc3ccccc3)C(=O)N2)cc1,8390,6170,–,–,–
N=C(N)c1ccc(CNC(=O)[C@@H]2Cc3cn(nn3)Cc3cccc([n+]3[O-])Cn3cc(nn3)C[C@@H](NS(=O)(=O)Cc3ccccc3)C(=O)N2)cc1,> 6000,1180,67,8.9,3120
CCCCCCCCNC(=O)[C@@H](Cc1ccc(OCc2ccncc2)cc1)NC(=O)[C@H]1CC[C@H](CN)CC1,–,–,–,530,–
CC(=O)N[C@@H](CCCNC(=N)N)C(=O)N[C@@H](CCS(C)(=O)=O)C(=O)N[C@@H](Cc1ccc(O)cc1)C(=O)N[C@H](C=O)CCCNC(=N)N (Ac-R[Met(O2)]YR-aldehyde),–,–,–,3.08,–
O=C(CC[C@H]1CCC[C@@H](NC(=O)[C@H](Cc2c[nH]c3ccccc23)NC(=O)[C@H](Cc2c[nH]c3ccccc23)NC(=O)OCc2ccccc2)C1=O)N[C@@H](Cc1c[nH]c2ccccc12)C(=O)N[C@@H](Cc1ccc(O)cc1)C(=O)O (Cbz-WW[X1]WY-OH),–,–,–,2700,–
